Source: BigSolDB 2.1

O=P1(c2cc(O)ccc2O)Oc2ccccc2-c2ccccc21 (configuration not stated)
Conditions | solubility (mole fraction)
in 2-ethoxyethanol, 293.15 K | 0.000896
in 2-ethoxyethanol, 298.15 K | 0.0012
in 2-ethoxyethanol, 302.98 K | 0.00157
in 2-ethoxyethanol, 308 K | 0.00207
in 2-ethoxyethanol, 313 K | 0.00248
in 2-ethoxyethanol, 317.8 K | 0.00347
in 2-ethoxyethanol, 322.7 K | 0.00439
in 2-ethoxyethanol, 327.65 K | 0.00556
in 2-ethoxyethanol, 332.65 K | 0.00702
in 2-ethoxyethanol, 337.6 K | 0.00896
in 2-ethoxyethanol, 342.58 K | 0.0109
in 2-ethoxyethanol, 347.4 K | 0.0134
in 2-ethoxyethanol, 352.83 K | 0.0168
in 2-ethoxyethanol, 357.7 K | 0.0207
in 2-ethoxyethanol, 362.67 K | 0.0249
in 2-ethoxyethanol, 367.65 K | 0.0301
in acetone, 292.15 K | 0.00153
in acetone, 297.15 K | 0.00182
in acetone, 302.15 K | 0.00226
in acetone, 307.85 K | 0.00304
in acetone, 312.9 K | 0.0037
in acetone, 317.65 K | 0.00427
in acetone, 322.6 K | 0.00551
in ethanol, 293.15 K | 0.00205
in ethanol, 298.1 K | 0.00224
in ethanol, 303.05 K | 0.00241
in ethanol, 307.95 K | 0.0027
in ethanol, 312.95 K | 0.00282
in ethanol, 317.8 K | 0.00309
in ethanol, 322.8 K | 0.00332
in ethanol, 327.85 K | 0.00352
in methanol, 293.15 K | 0.00107
in methanol, 298 K | 0.00128
in methanol, 302.9 K | 0.0015
in methanol, 307.85 K | 0.00182
in methanol, 312.84 K | 0.00227
in methanol, 317.6 K | 0.0026
in methanol, 322.63 K | 0.00292
in water, 303 K | 0.000139
in water, 307.95 K | 0.000143
in water, 312.85 K | 0.000151
in water, 317.6 K | 0.000155
in water, 322.45 K | 0.000165
in water, 327.65 K | 0.000168
in water, 332.5 K | 0.000175
in water, 337.55 K | 0.000184
in water, 342.35 K | 0.000189
